Results published in US20080051387A1, “TETRAHYDROPYRIDO[3,4-D]PYRIMIDINES AND RELATED ANALOGUES” (priority 2006, published 2008).

These molecules were tested against T1, chimeric human H3 receptor (Homo sapiens, UniProt Q9Y5N1) (assay: Chimeric human H3 receptor screening GTP binding assay (inhibition of histamine-stimulated GTP-gamma35S binding, Example 8)). Conditions: 1 h; assay described in Example 8; symbol "!" in column headed Ki; read-out: Ki ("!": percent inhibition of agonist-induced GTP-gammaS binding to H3).
T1 construct: rat Galpha-i2 (Gnai2, rat); made in house; host or cells: Sf9 insect cells (baculovirus); P2 membranes
T1 sequence (Q9Y5N1 with tags, fused parts or gaps): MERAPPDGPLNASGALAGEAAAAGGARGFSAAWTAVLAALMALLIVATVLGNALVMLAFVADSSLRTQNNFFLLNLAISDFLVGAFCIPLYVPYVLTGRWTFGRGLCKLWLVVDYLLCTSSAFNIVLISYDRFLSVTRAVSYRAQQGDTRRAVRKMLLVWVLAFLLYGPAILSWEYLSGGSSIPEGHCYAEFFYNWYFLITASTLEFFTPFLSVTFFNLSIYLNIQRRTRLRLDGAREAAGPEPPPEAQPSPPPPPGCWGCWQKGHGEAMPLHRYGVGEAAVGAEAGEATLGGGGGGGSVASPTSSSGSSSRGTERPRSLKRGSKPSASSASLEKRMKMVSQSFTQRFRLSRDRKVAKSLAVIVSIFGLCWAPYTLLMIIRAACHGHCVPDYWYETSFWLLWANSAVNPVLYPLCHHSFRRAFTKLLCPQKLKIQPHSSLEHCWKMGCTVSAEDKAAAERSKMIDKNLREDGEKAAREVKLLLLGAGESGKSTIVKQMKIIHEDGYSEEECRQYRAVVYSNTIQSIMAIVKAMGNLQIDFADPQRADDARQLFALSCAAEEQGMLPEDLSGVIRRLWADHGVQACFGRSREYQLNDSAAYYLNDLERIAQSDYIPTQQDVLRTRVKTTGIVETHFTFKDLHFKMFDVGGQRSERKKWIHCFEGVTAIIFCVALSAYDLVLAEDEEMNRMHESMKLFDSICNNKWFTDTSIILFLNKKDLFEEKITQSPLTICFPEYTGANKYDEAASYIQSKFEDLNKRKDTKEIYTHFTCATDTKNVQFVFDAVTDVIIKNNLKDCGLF
Format: biochemical
Procedure, shortened: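 Compound tested at 4 μM against 1 μM histamine stimulation; 125 pM GTP-gamma35S binding measured by filtration and scintillation after 60 min at room temperature. Membranes from Sf9 cells expressing chimeric human H3 plus G-protein subunits, in Tris pH 7.4/NaCl/MgCl2/GDP buffer; values are % inhibition after nonspecific subtraction.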

Row | Structure (SMILES) | inhibition at 4 µM [%]
1 | O=C(c1cccc(Cl)c1)N1CCc2cnc(N3CCN(C4CCC4)CC3)nc2CC1 [Compound 386, 7-(3-chlorobenzoyl)-2-(4-cyclobutylpiperazin-1-yl)-6,7,8,9-tetrahydro-5H-pyrimido[4,5-d]azepine] | ≥ 90
2 | O=C(c1ccc(Cl)cc1)N1CCc2cnc(N3CCN(C4CCC4)CC3)nc2CC1 [Compound 387, 7-(4-chlorobenzoyl)-2-(4-cyclobutylpiperazin-1-yl)-6,7,8,9-tetrahydro-5H-pyrimido[4,5-d]azepine] | ≥ 90
3 | Cc1cccc(C(=O)N2CCc3cnc(N4CCN(C5CCC5)CC4)nc3CC2)c1F [Compound 388, 2-(4-cyclobutylpiperazin-1-yl)-7-(2-fluoro-3-methylbenzoyl)-6,7,8,9-tetrahydro-5H-pyrimido[4,5-d]azepine] | ≥ 90
4 | O=C(c1c(F)cccc1F)N1CCc2cnc(N3CCN(C4CCC4)CC3)nc2CC1 [Compound 389, 2-(4-cyclobutylpiperazin-1-yl)-7-(2,6-difluorobenzoyl)-6,7,8,9-tetrahydro-5H-pyrimido[4,5-d]azepine] | ≥ 90
5 | O=C(c1ccc(F)c(F)c1)N1CCc2cnc(N3CCN(C4CCC4)CC3)nc2CC1 [Compound 390, 2-(4-cyclobutylpiperazin-1-yl)-7-(3,4-difluorobenzoyl)-6,7,8,9-tetrahydro-5H-pyrimido[4,5-d]azepine] | ≥ 90
6 | O=C(c1cc(F)ccc1F)N1CCc2cnc(N3CCN(C4CCC4)CC3)nc2CC1 [Compound 391, 2-(4-cyclobutylpiperazin-1-yl)-7-(2,5-difluorobenzoyl)-6,7,8,9-tetrahydro-5H-pyrimido[4,5-d]azepine] | ≥ 90
7 | O=C(c1ccc(F)cc1F)N1CCc2cnc(N3CCN(C4CCC4)CC3)nc2CC1 [Compound 392, 2-(4-cyclobutylpiperazin-1-yl)-7-(2,4-difluorobenzoyl)-6,7,8,9-tetrahydro-5H-pyrimido[4,5-d]azepine] | ≥ 90
8 | O=C(c1ccc(F)c(Cl)c1)N1CCc2cnc(N3CCN(C4CCC4)CC3)nc2CC1 [Compound 393, 7-(3-chloro-4-fluorobenzoyl)-2-(4-cyclobutylpiperazin-1-yl)-6,7,8,9-tetrahydro-5H-pyrimido[4,5-d]azepine] | ≥ 90
9 | Cc1ccc(C(=O)N2CCc3cnc(N4CCN(C5CCC5)CC4)nc3CC2)cc1Cl [Compound 394, 7-(3-chloro-4-methylbenzoyl)-2-(4-cyclobutylpiperazin-1-yl)-6,7,8,9-tetrahydro-5H-pyrimido[4,5-d]azepine] | ≥ 90
10 | Cc1cc(C(=O)N2CCc3cnc(N4CCN(C5CCC5)CC4)nc3CC2)ccc1Cl [Compound 395, 7-(4-chloro-3-methylbenzoyl)-2-(4-cyclobutylpiperazin-1-yl)-6,7,8,9-tetrahydro-5H-pyrimido[4,5-d]azepine] | ≥ 90
11 | O=C(c1ccc(Cl)c(Cl)c1)N1CCc2cnc(N3CCN(C4CCC4)CC3)nc2CC1 [Compound 396, 2-(4-cyclobutylpiperazin-1-yl)-7-(3,4-dichlorobenzoyl)-6,7,8,9-tetrahydro-5H-pyrimido[4,5-d]azepine] | ≥ 90
12 | O=C(c1cccc(C(F)(F)F)c1)N1CCc2cnc(N3CCN(C4CCC4)CC3)nc2CC1 [Compound 397, 2-(4-cyclobutylpiperazin-1-yl)-7-[3-(trifluoromethyl)benzoyl]-6,7,8,9-tetrahydro-5H-pyrimido[4,5-d]azepine] | ≥ 90
13 | O=C(c1cc(Cl)cc(Cl)c1)N1CCc2cnc(N3CCN(C4CCC4)CC3)nc2CC1 [Compound 398, 2-(4-cyclobutylpiperazin-1-yl)-7-(3,5-dichlorobenzoyl)-6,7,8,9-tetrahydro-5H-pyrimido[4,5-d]azepine] | ≥ 90
14 | O=C(c1cccc(C(F)(F)F)c1F)N1CCc2cnc(N3CCN(C4CCC4)CC3)nc2CC1 [Compound 399, 2-(4-cyclobutylpiperazin-1-yl)-7-[2-fluoro-3-(trifluoromethyl)benzoyl]-6,7,8,9-tetrahydro-5H-pyrimido[4,5-d]azepine] | ≥ 90
15 | Cc1ccc(C(=O)N2CCc3cnc(N4CCN(C5CCC5)CC4)nc3CC2)cc1Br [Compound 400, 7-(3-bromo-4-methylbenzoyl)-2-(4-cyclobutylpiperazin-1-yl)-6,7,8,9-tetrahydro-5H-pyrimido[4,5-d]azepine] | ≥ 90
16 | O=C(c1ccc(F)c(Br)c1)N1CCc2cnc(N3CCN(C4CCC4)CC3)nc2CC1 [Compound 401, 7-(3-bromo-4-fluorobenzoyl)-2-(4-cyclobutylpiperazin-1-yl)-6,7,8,9-tetrahydro-5H-pyrimido[4,5-d]azepine] | ≥ 90
17 | O=C(c1cc(C(F)(F)F)cc(C(F)(F)F)c1)N1CCc2cnc(N3CCN(C4CCC4)CC3)nc2CC1 [Compound 402, 7-[3,5-bis(trifluoromethyl)benzoyl]-2-(4-cyclobutylpiperazin-1-yl)-6,7,8,9-tetrahydro-5H-pyrimido[4,5-d]azepine] | ≥ 90

Row | Structure (SMILES) | inhibition at 4 µM [%]
18 | Cc1cccc(C(=O)N2CCc3cnc(N4CCN(C5CCC5)CC4)nc3CC2)c1C [Compound 403, 2-(4-cyclobutylpiperazin-1-yl)-7-(2,3-dimethylbenzoyl)-6,7,8,9-tetrahydro-5H-pyrimido[4,5-d]azepine] | ≥ 90
19 | O=C(c1cccc2ccccc12)N1CCc2cnc(N3CCN(C4CCC4)CC3)nc2CC1 [Compound 404, 2-(4-cyclobutylpiperazin-1-yl)-7-(1-naphthoyl)-6,7,8,9-tetrahydro-5H-pyrimido[4,5-d]azepine] | ≥ 90
20 | Cc1cc(C)c(C(=O)N2CCc3cnc(N4CCN(C5CCC5)CC4)nc3CC2)c(C)c1 [Compound 405, 2-(4-cyclobutylpiperazin-1-yl)-7-(mesitylcarbonyl)-6,7,8,9-tetrahydro-5H-pyrimido[4,5-d]azepine] | ≥ 90
21 | Cc1cccc(C)c1C(=O)N1CCc2cnc(N3CCN(C4CCC4)CC3)nc2CC1 [Compound 406, 2-(4-cyclobutylpiperazin-1-yl)-7-(2,6-dimethylbenzoyl)-6,7,8,9-tetrahydro-5H-pyrimido[4,5-d]azepine] | ≥ 90
22 | Cc1ccc(C(=O)N2CCc3cnc(N4CCN(C5CCC5)CC4)nc3CC2)c(C)c1 [Compound 407, 2-(4-cyclobutylpiperazin-1-yl)-7-(2,4-dimethylbenzoyl)-6,7,8,9-tetrahydro-5H-pyrimido[4,5-d]azepine] | ≥ 90
23 | CSc1ccccc1C(=O)N1CCc2cnc(N3CCN(C4CCC4)CC3)nc2CC1 [Compound 408, 2-(4-cyclobutylpiperazin-1-yl)-7-[2-(methylthio)benzoyl]-6,7,8,9-tetrahydro-5H-pyrimido[4,5-d]azepine] | ≥ 90
24 | O=C(c1ccccc1-c1ccccc1)N1CCc2cnc(N3CCN(C4CCC4)CC3)nc2CC1 [Compound 409, 7-(biphenyl-2-ylcarbonyl)-2-(4-cyclobutylpiperazin-1-yl)-6,7,8,9-tetrahydro-5H-pyrimido[4,5-d]azepine] | ≥ 90
25 | O=C(c1ccccc1Cc1ccccc1)N1CCc2cnc(N3CCN(C4CCC4)CC3)nc2CC1 [Compound 410, 7-(2-benzylbenzoyl)-2-(4-cyclobutylpiperazin-1-yl)-6,7,8,9-tetrahydro-5H-pyrimido[4,5-d]azepine] | ≥ 90
26 | O=C(c1ccccc1CCc1ccccc1)N1CCc2cnc(N3CCN(C4CCC4)CC3)nc2CC1 [Compound 411, 2-(4-cyclobutylpiperazin-1-yl)-7-[2-(2-phenylethyl)benzoyl]-6,7,8,9-tetrahydro-5H-pyrimido[4,5-d]azepine] | ≥ 90
27 | O=C(c1ccccc1OC(F)(F)F)N1CCc2cnc(N3CCN(C4CCC4)CC3)nc2CC1 [Compound 412, 2-(4-cyclobutylpiperazin-1-yl)-7-[2-(trifluoromethoxy)benzoyl]-6,7,8,9-tetrahydro-5H-pyrimido[4,5-d]azepine] | ≥ 90
28 | COc1ccc(Br)c(C(=O)N2CCc3cnc(N4CCN(C5CCC5)CC4)nc3CC2)c1 [Compound 413, 7-(2-bromo-5-methoxybenzoyl)-2-(4-cyclobutylpiperazin-1-yl)-6,7,8,9-tetrahydro-5H-pyrimido[4,5-d]azepine] | ≥ 90
29 | COc1ccc(Br)c(OC)c1C(=O)N1CCc2cnc(N3CCN(C4CCC4)CC3)nc2CC1 [Compound 414, 7-(3-bromo-2,6-dimethoxybenzoyl)-2-(4-cyclobutylpiperazin-1-yl)-6,7,8,9-tetrahydro-5H-pyrimido[4,5-d]azepine] | ≥ 90
30 | CCOc1ccccc1C(=O)N1CCc2cnc(N3CCN(C4CCC4)CC3)nc2CC1 [Compound 415, 2-(4-cyclobutylpiperazin-1-yl)-7-(2-ethoxybenzoyl)-6,7,8,9-tetrahydro-5H-pyrimido[4,5-d]azepine] | ≥ 90
31 | CCCOc1ccccc1C(=O)N1CCc2cnc(N3CCN(C4CCC4)CC3)nc2CC1 [Compound 416, 2-(4-cyclobutylpiperazin-1-yl)-7-(2-propoxybenzoyl)-6,7,8,9-tetrahydro-5H-pyrimido[4,5-d]azepine] | ≥ 90
32 | CCCCOc1ccccc1C(=O)N1CCc2cnc(N3CCN(C4CCC4)CC3)nc2CC1 [Compound 417, 7-(2-butoxybenzoyl)-2-(4-cyclobutylpiperazin-1-yl)-6,7,8,9-tetrahydro-5H-pyrimido[4,5-d]azepine] | ≥ 90
33 | Cc1ccc(Oc2ccccc2C(=O)N2CCc3cnc(N4CCN(C5CCC5)CC4)nc3CC2)cc1 [Compound 418, 2-(4-cyclobutylpiperazin-1-yl)-7-[2-(4-methylphenoxy)benzoyl]-6,7,8,9-tetrahydro-5H-pyrimido[4,5-d]azepine] | ≥ 90
34 | O=C(c1ccccc1Oc1ccc(Cl)cc1)N1CCc2cnc(N3CCN(C4CCC4)CC3)nc2CC1 [Compound 419, 7-[2-(4-chlorophenoxy)benzoyl]-2-(4-cyclobutylpiperazin-1-yl)-6,7,8,9-tetrahydro-5H-pyrimido[4,5-d]azepine] | ≥ 90
